For five compounds, IC50 results are on record in paper PMC5333395, “Assessing histone demethylase inhibitors in cells: lessons learned” (Epigenetics & Chromatin, 2017).

What all share (assay): AlphaScreen in vitro demethylase assay
Format in all cases: biochemical

One assay addresses T1, KDM4C (Homo sapiens, UniProt Q9H3R0).
T1 sequence (Q9H3R0 1-1056): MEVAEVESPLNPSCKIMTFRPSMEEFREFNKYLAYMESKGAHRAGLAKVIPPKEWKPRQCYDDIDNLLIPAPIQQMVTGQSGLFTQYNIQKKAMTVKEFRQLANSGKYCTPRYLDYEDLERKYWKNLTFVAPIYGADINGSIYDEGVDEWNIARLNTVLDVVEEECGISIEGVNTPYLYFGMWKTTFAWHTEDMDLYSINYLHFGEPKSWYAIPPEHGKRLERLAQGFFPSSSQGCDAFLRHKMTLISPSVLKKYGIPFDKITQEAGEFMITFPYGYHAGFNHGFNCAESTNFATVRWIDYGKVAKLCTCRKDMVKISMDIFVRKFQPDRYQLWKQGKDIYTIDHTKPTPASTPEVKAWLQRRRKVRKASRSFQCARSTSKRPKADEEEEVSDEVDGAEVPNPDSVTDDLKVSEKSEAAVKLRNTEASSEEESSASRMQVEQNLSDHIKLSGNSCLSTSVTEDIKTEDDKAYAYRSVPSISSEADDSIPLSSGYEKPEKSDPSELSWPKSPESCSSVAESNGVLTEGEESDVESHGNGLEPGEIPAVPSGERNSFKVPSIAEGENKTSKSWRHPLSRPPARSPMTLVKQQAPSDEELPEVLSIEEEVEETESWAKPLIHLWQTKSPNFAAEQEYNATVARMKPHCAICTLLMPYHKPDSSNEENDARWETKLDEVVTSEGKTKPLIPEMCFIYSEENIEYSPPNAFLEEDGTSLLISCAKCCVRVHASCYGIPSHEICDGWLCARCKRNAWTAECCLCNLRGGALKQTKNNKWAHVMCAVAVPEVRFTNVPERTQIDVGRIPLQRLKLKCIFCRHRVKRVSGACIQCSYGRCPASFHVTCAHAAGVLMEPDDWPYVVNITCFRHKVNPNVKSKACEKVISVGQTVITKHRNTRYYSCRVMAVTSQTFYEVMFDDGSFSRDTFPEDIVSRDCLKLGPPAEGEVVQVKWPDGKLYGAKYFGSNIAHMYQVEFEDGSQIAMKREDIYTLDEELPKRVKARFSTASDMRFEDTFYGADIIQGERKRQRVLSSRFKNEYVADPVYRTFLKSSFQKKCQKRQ
As to conditions: AlphaScreen; IC50 ± SD (number of replicates); read-out: KDM4C IC50, in vitro. The procedure: (§1) IC50 values were determined as previously described. The following amendments were made to the protocol for carrying out 2-OG competition assays.

The target of the next assay is KDM5B (Homo sapiens, UniProt Q9UGL1). The note with it: AlphaScreen; IC50 ± SD (number of replicates); read-out: KDM5B IC50, in vitro. On the procedure: as §1
Chain of KDM5B (Q9UGL1 whole entry): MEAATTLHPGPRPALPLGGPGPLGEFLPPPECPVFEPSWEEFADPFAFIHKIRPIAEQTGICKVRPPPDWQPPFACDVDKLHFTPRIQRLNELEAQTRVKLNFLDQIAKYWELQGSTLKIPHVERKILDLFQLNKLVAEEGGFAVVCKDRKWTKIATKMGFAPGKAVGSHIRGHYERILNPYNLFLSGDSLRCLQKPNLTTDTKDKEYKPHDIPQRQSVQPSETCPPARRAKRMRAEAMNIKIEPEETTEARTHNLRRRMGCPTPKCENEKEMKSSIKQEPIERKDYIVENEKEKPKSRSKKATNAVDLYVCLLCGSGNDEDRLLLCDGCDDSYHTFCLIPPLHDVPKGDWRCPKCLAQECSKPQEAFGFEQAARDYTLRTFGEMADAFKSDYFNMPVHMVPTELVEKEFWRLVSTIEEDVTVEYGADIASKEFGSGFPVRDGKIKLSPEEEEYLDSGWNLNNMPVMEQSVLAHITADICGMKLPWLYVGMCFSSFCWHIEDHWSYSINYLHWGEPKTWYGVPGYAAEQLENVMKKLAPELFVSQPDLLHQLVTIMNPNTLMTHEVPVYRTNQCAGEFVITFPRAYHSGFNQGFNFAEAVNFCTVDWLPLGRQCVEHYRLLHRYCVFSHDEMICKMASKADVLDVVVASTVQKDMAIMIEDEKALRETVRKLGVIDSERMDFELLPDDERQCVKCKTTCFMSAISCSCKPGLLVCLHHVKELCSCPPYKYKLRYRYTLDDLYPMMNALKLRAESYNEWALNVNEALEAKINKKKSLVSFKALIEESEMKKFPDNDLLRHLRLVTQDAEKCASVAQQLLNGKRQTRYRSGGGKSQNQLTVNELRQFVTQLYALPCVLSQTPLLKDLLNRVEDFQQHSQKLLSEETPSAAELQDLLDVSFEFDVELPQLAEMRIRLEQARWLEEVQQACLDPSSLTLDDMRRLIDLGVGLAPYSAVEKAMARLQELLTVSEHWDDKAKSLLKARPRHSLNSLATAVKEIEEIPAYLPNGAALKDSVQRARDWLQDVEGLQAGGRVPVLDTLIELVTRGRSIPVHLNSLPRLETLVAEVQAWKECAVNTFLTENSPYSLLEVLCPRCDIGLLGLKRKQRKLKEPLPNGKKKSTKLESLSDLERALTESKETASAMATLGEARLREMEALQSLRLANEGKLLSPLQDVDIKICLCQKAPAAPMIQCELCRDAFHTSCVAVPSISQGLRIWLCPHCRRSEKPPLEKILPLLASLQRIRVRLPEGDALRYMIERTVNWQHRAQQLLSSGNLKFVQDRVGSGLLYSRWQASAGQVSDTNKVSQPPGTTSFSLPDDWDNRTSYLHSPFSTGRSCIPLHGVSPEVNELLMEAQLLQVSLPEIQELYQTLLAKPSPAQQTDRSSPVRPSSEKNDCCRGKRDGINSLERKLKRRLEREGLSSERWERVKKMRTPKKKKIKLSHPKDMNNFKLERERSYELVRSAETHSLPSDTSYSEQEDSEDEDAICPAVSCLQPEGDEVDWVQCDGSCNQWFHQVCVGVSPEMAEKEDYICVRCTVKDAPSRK
The next assay addresses T2, KDM2A (Homo sapiens, UniProt Q9Y2K7).
T2 sequence (Q9Y2K7 1-1162): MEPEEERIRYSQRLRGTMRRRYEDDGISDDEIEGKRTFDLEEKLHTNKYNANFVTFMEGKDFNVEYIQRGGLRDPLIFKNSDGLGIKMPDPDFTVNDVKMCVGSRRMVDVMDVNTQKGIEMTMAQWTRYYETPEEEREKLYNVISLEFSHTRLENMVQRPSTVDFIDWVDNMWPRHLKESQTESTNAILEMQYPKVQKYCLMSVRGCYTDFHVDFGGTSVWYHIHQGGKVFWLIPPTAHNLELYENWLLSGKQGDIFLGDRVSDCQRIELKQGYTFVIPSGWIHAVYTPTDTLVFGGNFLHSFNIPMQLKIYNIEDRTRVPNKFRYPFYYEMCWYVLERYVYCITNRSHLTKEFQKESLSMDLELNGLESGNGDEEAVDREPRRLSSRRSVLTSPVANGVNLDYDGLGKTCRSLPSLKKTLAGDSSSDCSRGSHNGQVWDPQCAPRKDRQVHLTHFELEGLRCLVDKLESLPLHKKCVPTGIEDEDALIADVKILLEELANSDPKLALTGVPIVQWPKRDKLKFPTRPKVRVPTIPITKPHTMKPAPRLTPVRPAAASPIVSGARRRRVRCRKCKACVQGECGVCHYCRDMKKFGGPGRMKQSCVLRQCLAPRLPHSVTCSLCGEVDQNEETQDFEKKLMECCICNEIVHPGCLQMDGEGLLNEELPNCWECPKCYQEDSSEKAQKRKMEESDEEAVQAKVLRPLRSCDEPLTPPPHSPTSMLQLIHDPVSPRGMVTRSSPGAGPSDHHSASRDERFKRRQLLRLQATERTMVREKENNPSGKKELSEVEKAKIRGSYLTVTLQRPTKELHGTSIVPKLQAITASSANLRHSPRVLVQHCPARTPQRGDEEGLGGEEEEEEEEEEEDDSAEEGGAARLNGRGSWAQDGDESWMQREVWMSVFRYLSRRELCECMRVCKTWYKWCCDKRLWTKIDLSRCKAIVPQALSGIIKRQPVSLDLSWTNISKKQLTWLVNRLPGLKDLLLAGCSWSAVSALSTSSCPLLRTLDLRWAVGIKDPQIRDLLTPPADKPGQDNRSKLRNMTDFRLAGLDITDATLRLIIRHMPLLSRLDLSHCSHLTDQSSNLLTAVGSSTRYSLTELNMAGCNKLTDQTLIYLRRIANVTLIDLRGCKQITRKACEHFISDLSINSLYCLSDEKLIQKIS
The note with it: IC50 ± SD (number of replicates). On the procedure: as §1

For CPI-455, the figures for the concentration for half-maximal inhibition (IC50) at KDM4C, at KDM5B and at KDM2A were 11000 ± 2300 nM, 260 ± 64 nM and 23000 ± 3500 nM, respectively.
As to `CCN(CCN(C)C)C(=O)CNCc1cc(C(=O)O)ccn1` [KDOAM-20], the IC50 is 190 ± 81 nM at KDM4C, 7 ± 3 nM on KDM5B and 2200 ± 370 nM on KDM2A.
For `CCOC(=O)c1ccnc(CNCC(=O)N(CC)CCN(C)C)c1` [KDOAM-21], in that order: 2800 ± 1300 nM, 94 ± 65 nM and 19000 ± 10000 nM.
Consider `CCN(CCN(C)C)C(=O)CNCc1cncc(C(N)=O)c1` [KDOAM-32], for which the IC50 on KDM5B was greater than 10000 nM.
Same read-out and setting: the same measure for `O=c1[nH]cnc2c(-n3cc(CCN4CCC(c5cccc(Cl)c5)CC4)cn3)cccc12` [CCT366293, 8-(4-(2-(4-(3-Chlorophenyl)piperidin-1-yl)ethyl)-1H-pyrazol-1-yl)quinazolin-4(3H)-one]: greater than 10000 nM.
